Data from ChEMBL document CHEMBL3396993, “Inhibition of monoamine oxidase by indole-5,6-dicarbonitrile derivatives” (Bioorg Med Chem Lett, 2015).

Tests used:
[1] = molecular target: T1, Amine oxidase [flavin-containing] A (Homo sapiens, UniProt P21397);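 also: recombinant human enzyme, activity followed as kynuramine conversion to 4-hydroxyquinoline, detected by spectrofluorometry, inhibition measured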
T1 sequence (P21397 whole entry): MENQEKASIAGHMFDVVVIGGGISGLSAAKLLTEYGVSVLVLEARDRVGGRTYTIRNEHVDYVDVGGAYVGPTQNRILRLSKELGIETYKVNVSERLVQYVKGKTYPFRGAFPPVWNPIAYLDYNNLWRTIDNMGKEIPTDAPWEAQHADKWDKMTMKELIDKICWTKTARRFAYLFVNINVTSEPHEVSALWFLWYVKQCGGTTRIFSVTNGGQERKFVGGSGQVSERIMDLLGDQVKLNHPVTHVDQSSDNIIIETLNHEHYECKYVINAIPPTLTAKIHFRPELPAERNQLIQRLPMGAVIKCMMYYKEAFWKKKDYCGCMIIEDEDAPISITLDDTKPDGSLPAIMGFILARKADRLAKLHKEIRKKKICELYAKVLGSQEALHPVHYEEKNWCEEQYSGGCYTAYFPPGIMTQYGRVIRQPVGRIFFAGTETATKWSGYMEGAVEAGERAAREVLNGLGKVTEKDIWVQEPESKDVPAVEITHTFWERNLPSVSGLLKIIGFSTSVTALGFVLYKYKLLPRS

[2] = molecular target: T2, Amine oxidase [flavin-containing] B (Homo sapiens, UniProt P27338);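 also: recombinant enzyme, kynuramine substrate converted to 4-hydroxyquinoline, product quantified by spectrofluorometry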
T2 sequence (P27338 whole entry): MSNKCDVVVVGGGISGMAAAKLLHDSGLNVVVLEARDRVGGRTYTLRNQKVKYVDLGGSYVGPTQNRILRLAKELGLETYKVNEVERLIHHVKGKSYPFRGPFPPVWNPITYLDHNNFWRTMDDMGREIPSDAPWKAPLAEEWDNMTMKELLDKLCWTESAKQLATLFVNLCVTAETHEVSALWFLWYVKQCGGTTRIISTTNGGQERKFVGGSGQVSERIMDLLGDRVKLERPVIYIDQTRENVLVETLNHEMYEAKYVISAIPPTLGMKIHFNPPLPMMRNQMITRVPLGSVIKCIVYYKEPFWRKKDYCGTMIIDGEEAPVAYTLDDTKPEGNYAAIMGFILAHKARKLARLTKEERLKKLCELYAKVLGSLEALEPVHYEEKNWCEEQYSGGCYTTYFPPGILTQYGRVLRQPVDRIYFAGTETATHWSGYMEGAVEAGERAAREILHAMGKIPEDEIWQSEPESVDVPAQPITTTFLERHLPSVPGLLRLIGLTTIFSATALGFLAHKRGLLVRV

[3] = molecular target: T2, Amine oxidase [flavin-containing] B; test: Reversible inhibition of human recombinant MAO-B using kynuramine substrate assessed as enzyme activity recovered at 4 times of IC50 concentration incubated for 15 mins and subsequently dialyzed for 24 hrs relative to control in presence of (R)-deprenyl; parameters: scale not given: the % may be the effect or the level left; settings: 0.25 h
[4] = molecular target: T1, Amine oxidase [flavin-containing] A; test: Inhibition of human recombinant MAO-A assessed as kynuramine substrate by Lineweaver-Burk plot analysis
[5] = molecular target: T1, Amine oxidase [flavin-containing] A; test: Reversible inhibition of human recombinant MAO-A using kynuramine substrate assessed as enzyme activity recovered at 4 times of IC50 concentration incubated for 15 mins relative to control; parameters: scale not given: the % may be the effect or the level left; settings: 0.25 h
[6] = molecular target: T1, Amine oxidase [flavin-containing] A; test: Reversible inhibition of human recombinant MAO-A using kynuramine substrate assessed as enzyme activity recovered at 4 times of IC50 concentration incubated for 15 mins and subsequently dialyzed for 24 hrs relative to control in presence of pargyline; parameters: scale not given: the % may be the effect or the level left; settings: 0.25 h
[7] = molecular target: T2, Amine oxidase [flavin-containing] B; test: Inhibition of human recombinant MAO-B assessed as kynuramine substrate by Lineweaver-Burk plot analysis
[8] = molecular target: T1, Amine oxidase [flavin-containing] A; test: Reversible inhibition of human recombinant MAO-A using kynuramine substrate assessed as enzyme activity recovered at 4 times of IC50 concentration incubated for 15 mins and subsequently dialyzed for 24 hrs relative to control; parameters: scale not given: the % may be the effect or the level left; settings: 0.25 h
[9] = molecular target: T2, Amine oxidase [flavin-containing] B; test: Reversible inhibition of human recombinant MAO-B using kynuramine substrate assessed as enzyme activity recovered at 4 times of IC50 concentration incubated for 15 mins and subsequently dialyzed for 24 hrs relative to control; parameters: scale not given: the % may be the effect or the level left; settings: 0.25 h
[10] = molecular target: T2, Amine oxidase [flavin-containing] B; test: Reversible inhibition of human recombinant MAO-B using kynuramine substrate assessed as enzyme activity recovered at 4 times of IC50 concentration incubated for 15 mins relative to control; parameters: scale not given: the % may be the effect or the level left; settings: 0.25 h

## COc1ccc(-c2c(Br)c3cc(C#N)c(C#N)cc3n2OC)cc1
[1]
  IC50: > 100000 nM
[2]
  IC50: > 100000 nM

## Cn1c(-c2cccs2)c(Cl)c2cc(C#N)c(C#N)cc21
[1]
  IC50: 35 nM
[2]
  IC50: > 100000 nM

## N#Cc1ccc(OC/C=C/c2ccccc2)cc1C#N
[2]
  IC50: 642 nM

## COc1ccc(-c2c(Br)c3cc(C#N)c(C#N)cc3n2O)cc1
[1]
  IC50: 726 nM
[2]
  IC50: 1520 nM

## Cc1ccc(-c2[nH]c3cc(C#N)c(C#N)cc3c2Cl)cc1
[3]
  Activity: 3.1%
[4]
  Ki: 18 nM
[5]
  Activity: 43%
[1]
  IC50: 14 nM
[6]
  Activity: 1.6%
[7]
  Ki: 16 nM
[8]
  Activity: 77%
[2]
  IC50: 17 nM
[9]
  Activity: 78%
[10]
  Activity: 37%

## N#Cc1ccc(OCc2ccc(Br)cc2)cc1C#N
[1]
  IC50: 6.6 nM

## COc1ccc(-c2[nH]c3cc(C#N)c(C#N)cc3c2Cl)cc1
[1]
  IC50: 4 nM
[2]
  IC50: 20 nM

## N#Cc1cc2[nH]c(-c3ccccc3)c(Cl)c2cc1C#N
[1]
  IC50: 121 nM
[2]
  IC50: 144 nM

## Cn1c(-c2ccccc2)c(Cl)c2cc(C#N)c(C#N)cc21
[1]
  IC50: 142 nM
[2]
  IC50: > 100000 nM

## Cc1ccc(-c2c(Br)c3cc(C#N)c(C#N)cc3n2O)cc1
[1]
  IC50: 2190 nM
[2]
  IC50: 2860 nM

## Cc1ccc(-c2c(Cl)c3cc(C#N)c(C#N)cc3n2C)cc1
[1]
  IC50: 19400 nM
[2]
  IC50: > 100000 nM

## N#Cc1cc2[nH]c(-c3cccs3)c(Cl)c2cc1C#N
[1]
  IC50: 118 nM
[2]
  IC50: 1270 nM

## COc1ccc(-c2c(Cl)c3cc(C#N)c(C#N)cc3n2C)cc1
[1]
  IC50: 129 nM
[2]
  IC50: > 100000 nM

## N#Cc1cc2c(Br)c(-c3ccccc3)n(O)c2cc1C#N
[1]
  IC50: 3480 nM
[2]
  IC50: 11900 nM
